This note sets out measurements from article PMC9977574 (Gut, 2022).

This assay deals with FKBP8 (FK506 binding protein 8) (Homo sapiens, UniProt Q14318). The experiment in a line: microscale thermophoresis competition with recombinant proteins. (In general: In MST a laser heats a spot of the sample, and binding alters the fluorescence response.)
FKBP8 (FK506 binding protein 8), sequence (Q14318 whole entry): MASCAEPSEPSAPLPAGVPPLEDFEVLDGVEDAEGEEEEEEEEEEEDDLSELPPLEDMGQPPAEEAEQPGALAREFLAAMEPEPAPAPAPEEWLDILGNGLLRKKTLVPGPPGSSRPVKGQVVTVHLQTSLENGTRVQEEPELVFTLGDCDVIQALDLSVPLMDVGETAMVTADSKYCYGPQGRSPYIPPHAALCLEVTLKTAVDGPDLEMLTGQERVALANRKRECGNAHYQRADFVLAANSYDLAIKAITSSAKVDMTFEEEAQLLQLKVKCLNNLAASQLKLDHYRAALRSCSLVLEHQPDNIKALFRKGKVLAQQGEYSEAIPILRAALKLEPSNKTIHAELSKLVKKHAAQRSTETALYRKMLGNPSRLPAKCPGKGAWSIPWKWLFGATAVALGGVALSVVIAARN
FKBP8 (FK506 binding protein 8), sequence (Q15746 whole entry partner): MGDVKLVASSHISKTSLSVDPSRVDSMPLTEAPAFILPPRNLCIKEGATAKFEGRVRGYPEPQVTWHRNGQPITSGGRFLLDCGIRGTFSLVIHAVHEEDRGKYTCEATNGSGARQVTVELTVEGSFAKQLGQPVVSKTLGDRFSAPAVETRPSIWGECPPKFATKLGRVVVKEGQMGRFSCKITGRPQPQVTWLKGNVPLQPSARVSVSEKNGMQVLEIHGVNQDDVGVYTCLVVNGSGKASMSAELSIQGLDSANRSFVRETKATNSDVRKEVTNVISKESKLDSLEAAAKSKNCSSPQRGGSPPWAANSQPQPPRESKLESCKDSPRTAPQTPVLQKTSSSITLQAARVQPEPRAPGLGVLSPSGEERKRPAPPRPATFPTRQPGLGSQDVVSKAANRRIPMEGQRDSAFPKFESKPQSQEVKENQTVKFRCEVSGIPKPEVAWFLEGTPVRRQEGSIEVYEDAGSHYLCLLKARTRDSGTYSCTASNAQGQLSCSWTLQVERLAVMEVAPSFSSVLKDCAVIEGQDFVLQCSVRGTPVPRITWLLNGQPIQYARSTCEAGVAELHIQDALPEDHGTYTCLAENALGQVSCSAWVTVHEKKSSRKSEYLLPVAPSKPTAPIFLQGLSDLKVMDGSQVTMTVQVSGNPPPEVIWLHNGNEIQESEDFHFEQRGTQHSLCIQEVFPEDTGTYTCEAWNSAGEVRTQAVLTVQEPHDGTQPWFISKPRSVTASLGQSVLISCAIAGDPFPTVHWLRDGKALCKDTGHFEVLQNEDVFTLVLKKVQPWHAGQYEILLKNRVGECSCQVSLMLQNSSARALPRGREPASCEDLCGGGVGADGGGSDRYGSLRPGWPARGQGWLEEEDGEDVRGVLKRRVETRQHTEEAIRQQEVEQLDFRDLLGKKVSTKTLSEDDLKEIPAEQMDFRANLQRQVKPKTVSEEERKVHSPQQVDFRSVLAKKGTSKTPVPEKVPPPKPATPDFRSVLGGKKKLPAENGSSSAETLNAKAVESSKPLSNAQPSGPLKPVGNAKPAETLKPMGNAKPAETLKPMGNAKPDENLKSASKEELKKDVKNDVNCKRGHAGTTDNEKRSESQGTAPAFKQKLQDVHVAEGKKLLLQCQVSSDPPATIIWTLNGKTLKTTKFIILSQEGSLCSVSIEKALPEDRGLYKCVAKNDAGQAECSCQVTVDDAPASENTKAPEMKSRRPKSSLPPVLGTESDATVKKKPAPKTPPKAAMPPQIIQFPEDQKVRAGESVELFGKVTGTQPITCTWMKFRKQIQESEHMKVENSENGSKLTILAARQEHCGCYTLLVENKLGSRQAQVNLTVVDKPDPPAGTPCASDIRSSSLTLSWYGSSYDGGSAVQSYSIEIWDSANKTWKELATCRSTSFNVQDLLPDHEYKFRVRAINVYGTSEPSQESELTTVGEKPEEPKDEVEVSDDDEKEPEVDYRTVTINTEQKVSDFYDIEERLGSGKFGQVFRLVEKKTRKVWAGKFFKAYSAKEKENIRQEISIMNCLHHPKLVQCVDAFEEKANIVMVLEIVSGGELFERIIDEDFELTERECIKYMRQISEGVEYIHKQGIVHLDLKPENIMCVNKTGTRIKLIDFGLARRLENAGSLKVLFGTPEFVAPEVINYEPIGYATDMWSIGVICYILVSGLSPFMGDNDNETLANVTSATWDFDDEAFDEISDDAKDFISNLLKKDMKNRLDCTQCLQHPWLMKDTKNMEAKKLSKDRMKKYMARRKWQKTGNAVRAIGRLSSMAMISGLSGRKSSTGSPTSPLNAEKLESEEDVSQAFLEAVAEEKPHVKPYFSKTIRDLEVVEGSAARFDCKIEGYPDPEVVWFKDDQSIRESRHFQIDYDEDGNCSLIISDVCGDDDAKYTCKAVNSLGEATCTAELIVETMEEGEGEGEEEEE

For the compound `C=CC[C@@H]1/C=C(\C)C[C@H](C)C[C@H](OC)[C@H]2O[C@@](O)(C(=O)C(=O)N3CCCC[C@H]3C(=O)O[C@H](/C(C)=C/[C@@H]3CC[C@@H](O)[C@H](OC)C3)[C@H](C)[C@@H](O)CC1=O)[C@H](C)C[C@@H]2OC` [tacrolimus], the IC50 (usually the concentration needed to halve the response being measured) is 68.7 ± 13.3 µM.
